Source: ChEMBL document CHEMBL5550185, “Targeting hTERT Promoter G-Quadruplex DNA Structures with Small-Molecule Ligand to Downregulate hTERT Expression for Triple-Negative Breast Cancer Therapy” (J Med Chem, 2024)
Active and inactive are the calls of the source. The calls are words filed in the database; no cut-off is given here.

Legend:
Quadruplex DNA [1] = assay: Binding affinity to human TERT G4 DNA in Tris-HCl buffer at pH 7.4 assessed as fold increase in fluorescence signal at 5 uM by fluorescence spectrometer relative to control; type: nucleic-acid assay
DNA [2] = assay: Binding affinity to Dt21 ssDNA (unknown origin) assessed as thermal stability by measuring change in melting temperature at 400 uM […]; type: nucleic-acid assay
DNA [3] = assay: Binding affinity to Ds26 duplex DNA (unknown origin) assessed as thermal stability by measuring change in melting temperature at 400 uM […]; type: nucleic-acid assay
DNA [4] = assay: Binding affinity to Ds26 duplex DNA (unknown origin) assessed as change in enthalpy at 400 uM by ITC analysis; type: nucleic-acid assay
Quadruplex DNA [5] = assay: Binding affinity to CKIT-2 G4 DNA (unknown origin) assessed as thermal stability by measuring change in melting temperature at 400 uM […]; type: nucleic-acid assay
Quadruplex DNA [6] = assay: Binding affinity to CKIT-2 G4 DNA (unknown origin) assessed as dissociation constant by ITC analysis; type: nucleic-acid assay
Quadruplex DNA [7] = assay: Binding affinity to Bcl-2 G4 DNA (unknown origin) assessed as dissociation constant by ITC analysis; type: nucleic-acid assay
Quadruplex DNA [8] = assay: Binding affinity to Telo21 G4 DNA (unknown origin) assessed as change in enthalpy at 400 uM by ITC analysis; type: nucleic-acid assay
Quadruplex DNA [9] = assay: Binding affinity to hTERT G4 DNA assessed as change in enthalpy at 400 uM by ITC analysis; type: nucleic-acid assay; conditions: Homo sapiens
[10] = Selectivity ratio of binding affinity to human TERT G4 DNA to binding affinity to RET G4 DNA (unknown origin)
[11] = Selectivity ratio of binding affinity to human TERT G4 DNA to binding affinity to Dt21 ssDNA (unknown origin)
DNA [12] = assay: Binding affinity to DNA in telomerase-positive live human MDA-MB-231 cells at 5 uM preincubated for 10 mins followed by washout and RNase A addition measured after 2 hrs by Hoechst 33342 staining based confocal microscopic analysis; type: cell-based
MDA-MB-231 [13] = assay: Downregulation of hTERT mRNA expression in human MDA-MB-231 cells measured after 48 hrs by qRT-PCR analysis; type: functional, cell-based; conditions: dose 0-1.5 µM
MDA-MB-231 [14] = assay: Downregulation of c-MYC mRNA expression in human MDA-MB-231 cells at 0 to 1.5 uM measured after 48 hrs by qRT-PCR analysis; type: functional, cell-based; conditions: dose 0-1.5 µM
MDA-MB-231 [15] = assay: Inhibition of hTERT expression in human MDA-MB-231 cells assessed as reduction in pink foci in nucleus at 0.5 uM incubated for 48 hrs in presence of TBHP at 200 uM by immunofluorescence analysis; type: functional, cell-based
MDA-MB-231 [16] = assay: Induction of autophagy in human MDA-MB-231 cells assessed as engulfment of damaged mitochondria by lysosomes by measuring lysosome-mitochondria colocalization at 0 to 1.5 uM measured after 48 hrs by LysoTracker Blue DND-22/MitoTracker Deep Red FM staining based confocal microscopic analysis; type: functional, cell-based; conditions: dose 0-1.5 µM
MDA-MB-231 [17] = assay: Downregulation of DNAPKcs transcription level in human MDA-MB-231 cells at 1 uM measured after 48 hrs by RNA-seq analysis; type: functional, cell-based
MDA-MB-231 [18] = assay: Downregulation of ND4 gene expression in human MDA-MB-231 cells at 1 uM measured after 48 hrs by RNA-seq analysis; type: functional, cell-based
[19] = Upregulation of CCNB1 gene expression in human MDA-MB-231 cells assessed as fold change at 1 uM measured after 48 hrs by RNA-seq analysis relative to control; type: functional
[20] = Upregulation of PLK4 gene expression in human MDA-MB-231 cells assessed as fold change at 1 uM measured after 48 hrs by RNA-seq analysis relative to control; type: functional
[21] = Upregulation of TGFB3 gene expression in human MDA-MB-231 cells assessed as fold change at 1 uM measured after 48 hrs by RNA-seq analysis relative to control; type: functional
[22] = Upregulation of CCNB3 gene expression in human MDA-MB-231 cells assessed as fold change at 1 uM measured after 48 hrs by RNA-seq analysis relative to control; type: functional
MDA-MB-231 [23] = assay: Inhibition of hTERT expression at transcriptional level in human MDA-MB-231 cells at 1 uM measured after 48 hrs by RNA-seq analysis; type: functional, cell-based
[24] = Upregulation of RRAS gene expression in human MDA-MB-231 cells assessed as fold change at 1 uM measured after 48 hrs by RNA-seq analysis relative to control; type: functional
[25] = Upregulation of CDKN1A gene expression in human MDA-MB-231 cells assessed as fold change at 1 uM measured after 48 hrs by RNA-seq analysis relative to control; type: functional
[26] = Upregulation of CALML6 gene expression in human MDA-MB-231 cells assessed as fold change at 1 uM measured after 48 hrs by RNA-seq analysis relative to control; type: functional
[27] = Upregulation of SAT1 gene expression in human MDA-MB-231 cells assessed as fold change at 1 uM measured after 48 hrs by RNA-seq analysis relative to control; type: functional
[28] = Upregulation of PCBP3 gene expression in human MDA-MB-231 cells assessed as fold change at 1 uM measured after 48 hrs by RNA-seq analysis relative to control; type: functional
[29] = Toxicity in female Balb/c nude mouse xenografted with human MDA-MB-231 cells assessed as signs of skin tear at 2 to 5 mg/kg, iv administered via tail vein every 2 days for 16 days; type: organism-based; conditions: in vivo, 384 h, dose 2-5 mg/kg, time 16 day
[30] = Toxicity in female Balb/c nude mouse xenografted with human MDA-MB-231 cells assessed as signs of poor health at 2 to 5 mg/kg, iv administered via tail vein every 2 days for 16 days; type: organism-based; conditions: in vivo, 384 h, dose 2-5 mg/kg, time 16 day
MDA-MB-231 [31] = assay: Antitumor activity against human MDA-MB-231 cells xenografted in iv dosed female Balb/c mouse assessed as nucleolysis in tumor administered via tail vein every 2 days for 16 days by H and E staining based analysis; type: functional, organism-based; conditions: dose 2-5 mg/kg, time 16.0 day
[32] = Toxicity in female Balb/c nude mouse xenografted with human MDA-MB-231 cells assessed as change in AST level at 2 to 5 mg/kg, iv administered via tail vein every 2 days for 16 days; type: organism-based; conditions: in vivo, 384 h, dose 2-5 mg/kg, time 16 day
[33] = Toxicity in female Balb/c nude mouse xenografted with human MDA-MB-231 cells assessed as change in lymphocyte count at 2 to 5 mg/kg, iv administered via tail vein every 2 days for 16 days; type: organism-based; conditions: in vivo, 384 h, dose 2-5 mg/kg, time 16 day
[34] = Toxicity in female Balb/c nude mouse xenografted with human MDA-MB-231 cells assessed as change in RBC count at 2 to 5 mg/kg, iv administered via tail vein every 2 days for 16 days; type: organism-based, Erythrocyte; conditions: in vivo, 384 h, dose 2-5 mg/kg, time 16 day
[35] = Toxicity in female Balb/c nude mouse xenografted with human MDA-MB-231 cells assessed as pathological changes in heart at 2 to 5 mg/kg, iv administered via tail vein every 2 days for 16 days by H and E staining based analysis; type: organism-based; conditions: in vivo, 384 h, dose 2-5 mg/kg, time 16 day
[36] = Toxicity in female Balb/c nude mouse xenografted with human MDA-MB-231 cells assessed as pathological changes in lung at 2 to 5 mg/kg, iv administered via tail vein every 2 days for 16 days by H and E staining based analysis; type: organism-based; conditions: in vivo, 384 h, dose 2-5 mg/kg, time 16 day

fold change (FC) (Quadruplex DNA [1]): 29
ΔTm (DNA [2]): -2.51 °C
ΔTm (DNA [3]): 1.01 °C
deltaH (DNA [4]): -5.52 kJ/mol
ΔTm (Quadruplex DNA [5]): 2.45 °C
Kd (Quadruplex DNA [6]): 6.8 µM
Kd (Quadruplex DNA [7]): 3.61 µM
deltaH (Quadruplex DNA [8]): -4.56 kJ/mol
deltaH (Quadruplex DNA [9]): -11.4 kJ/mol
Selectivity ratio [10]: 2
Selectivity ratio [11]: 18
SMILES: C[n+]1c(/C=C/c2c[nH]c3ccccc23)cc(/C=C2\Sc3ccccc3N2CCCN2CCC(C(F)(F)F)CC2)c2ccccc21.[I-]
Activity (DNA [12]): Active
Activity (MDA-MB-231 [13]): Dose-Dependent Effect
Activity (MDA-MB-231 [14]): inactive
inhibition (MDA-MB-231 [15]): Active
Activity (MDA-MB-231 [16]): Active
Activity (MDA-MB-231 [17]): Active
Activity (MDA-MB-231 [18]): Active
fold change (FC) [19]: >2
fold change (FC) [20]: >2
fold change (FC) [21]: >2
fold change (FC) [22]: >2
inhibition (MDA-MB-231 [23]): Active
fold change (FC) [24]: >2
fold change (FC) [25]: >2
fold change (FC) [26]: >2
fold change (FC) [27]: >2
fold change (FC) [28]: >2
Activity [29]: Non-Toxic
Activity [30]: Non-Toxic
Activity (MDA-MB-231 [31]): Dose-Dependent Effect
Activity [32]: Non-Toxic
Activity [33]: Non-Toxic
Activity [34]: Non-Toxic
Activity [35]: Non-Toxic
Activity [36]: Non-Toxic
